Data from article PMC12040169 (PLOS Biology, 2025).

Legend:
[1] = tested on: T1, C. trachomatis L2/434/Bu expressing GFP (CTL2-GFP); assay: microbe, parasite or virus in culture; parameters: C. trachomatis total inclusion area by high-content imaging, normalised to DMSO; details: Chlamydia trachomatis, HeLa, 28.5 h; total inclusion area; read-out: % of control remaining
T1 construct: L2/434/Bu GFP intracellular growth in HeLa cells
How it was run: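 Infected cells treated with library compounds were read for bulk GFP (chlamydial growth) and resorufin fluorescence (host viability), then fixed, Hoechst-stained and imaged. Inclusion area and number from GFP, plus nuclei counts, served as additional growth and viability proxies; MICs derived as previously described.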

[2] = tested on: T2, CTL2-GFP (C. trachomatis L2/434/Bu, GFP-expressing); assay: microbe, parasite or virus in culture; parameters: Intracellular C. trachomatis growth in HeLa cells, bulk GFP fluorescence relative to DMSO; details: Chlamydia trachomatis, HeLa, 28.5 h; bulk GFP, mean of 2; read-out: % of control remaining
T2 construct: L2/434/Bu, GFP-expressing
Protocol: MICs were calculated as described above.

in vitro [3] = assay: in vitro; parameters: Viability of infected HeLa host cells, resazurin conversion, bulk resorufin fluorescence relative to DMSO; details: human, hela cells; bulk resorufin, mean of 2
in vitro [4] = details: human, hela cells, % viability

| SMILES | activity at 1 µM [1] | activity at 5 µM [1] | activity at 10 µM [1] | activity at 1 µM [2] | activity at 5 µM [2] | activity at 10 µM [2] | viability at 28.5 h, 1 µM (in vitro [3]) | viability at 28.5 h, 5 µM (in vitro [3]) | viability at 28.5 h, 10 µM (in vitro [3]) | viability at 28.5 h, 10 µM (in vitro [4]) |
| --- | --- | --- | --- | --- | --- | --- | --- | --- | --- | --- |
| COc1ccc(C2CC(=O)C=C(Nc3cc(Cl)ccc3O)C2)cc1 (centres unmarked) [CBK263542] | 81.9% | 0.174% | 3.14% | 86% | 0% | 9.05% | 90.9% | 101% | 87.8% | 105% |
| COc1cccc(C(=O)/C=C\Nc2ccc(S(=O)(=O)Nc3onc(C)c3C)cc2)c1 [CBK264206] | 68.5% | 28.9% | 19% | 83.7% | 25.4% | 8.04% | 106% | 104% | 114% | 93.4% |
| CC1=NN(c2ccccc2)C(=O)/C1=C/Nc1ccc(S(=O)(=O)Nc2nc(C)cc(C)n2)cc1 [CBK262368] | 70.2% | 28.2% | 14.1% | 46.9% | 21% | 13.7% | 96.6% | 93.9% | 96.8% | 106% |
| O=C(NCCc1c[nH]c2ccc(Cl)cc12)c1c(F)ccc(Cl)c1F [CBK159756] | 92.7% | 39.2% | 2.12% | 103% | 35.2% | 3.33% | 98.5% | 96.7% | 94.6% | 93% |
| COc1cc2c(cc1CNC(=O)c1cn(CCN)nn1)CCC2 [CBK306886] | 176% | 112% | 45.1% | 167% | 109% | 35.5% | 97.3% | 96.7% | 92.4% | 84.7% |
| CC(=O)NC[C@H]1CN(c2ccc(-c3nnc(CCC#N)s3)c(F)c2)C(=O)O1 [CBK017926] | 15.4% | 0.206% | 0.193% | 19.4% | 2.09% | 3.05% | 93.8% | 92% | 95.7% | 87.1% |
| O=C(Nc1ccc(OC(F)(F)F)cc1)Nc1cc(-c2cccs2)n[nH]1 [CBK020563] | 96.5% | 24% | 10.2% | 100% | 13.4% | 4.7% | 113% | 110% | 117% | 82.5% |
| Cc1noc(NS(=O)(=O)c2ccc(N/C=C\C(=O)c3cccnc3)cc2)c1C [CBK264285] | 69.7% | 26.3% | 17.9% | 72.6% | 13.6% | 11.8% | 106% | 103% | 104% | 102% |
| Cc1ccc(Cn2c(=N)n(CC(=O)c3cc(C(C)(C)C)c(O)c(C(C)(C)C)c3)c3ccccc32)cc1 [CBK262458B] | 99.9% | 36.5% | 52% | 127% | 56.5% | 91.9% | 92.1% | 96.7% | 101% | 82.6% |
| NCc1ccc2cccc(O)c2n1 [CBK001376T] | 66.3% | 31.4% | 6.97% | 80.5% | 19.7% | 1.06% | 109% | 112% | 110% | 85.6% |
| COCC(=O)N[C@H]1C[C@H]2C(=O)Nc3ccc(/C=C/c4ccccc4)cc3C(=O)N2C1 [CBK289366] | 105% | 11.7% | 1.71% | 87.5% | 12% | 2.8% | 93.1% | 96.4% | 98.1% | 90.2% |
| CCOc1ccsc1C(=O)NC1Cc2ccccc2C1 [CBK200359] | 88.7% | 0.493% | 0.44% | 57.4% | 3.62% | 6.67% | 104% | 96.4% | 93% | 82.6% |
| COc1ccc(C(C)C)cc1-c1cn2ccnc2c(N2CCN(c3ccncc3)CC2)n1 [CBK066217] | 96.6% | 75.5% | 31.5% | 91.5% | 63.5% | 28.4% | 102% | 104% | 101% | 116% |
| O=C(Nc1cccc2c(NC(=O)N3CCCCC3)cccc12)N1CCCCC1 [CBK010775] | 97.8% | 43.6% | 23.8% | 130% | 67.1% | 38.3% | 89.2% | 88.8% | 84.5% | 109% |
| CC(=O)c1cc(-c2cccnc2)cs1 [CBK017637] | 86.9% | 83.4% | 98.2% | 140% | 120% | 123% | 113% | 110% | 110% | 82.4% |
| Cc1ccc(S(=O)(=O)Nc2cc(SCC(=O)O)c(O)c3ccccc23)cc1 [CBK265708] | 75.1% | 34.7% | 13.4% | 92.1% | 51.3% | 33% | 103% | 99.6% | 97.8% | 87.1% |
| C/C(Nc1ccc(S(=O)(=O)Nc2nccc(C)n2)cc1)=C1\C(=O)N(c2nc3ccccc3s2)N=C1C(F)(F)F [CBK263002] | 62.8% | 27.5% | 22.8% | 31.6% | 15.5% | 14.3% | 93.4% | 89.8% | 88.6% | 90.1% |
| Cc1nc(C(=N)N)nc2ccccc12 [CBK010368C] | 60.8% | 35.9% | 41.3% | 94.1% | 66.1% | 65.1% | 98.3% | 94.3% | 88.2% | 86.3% |
| CCOc1ccc(OCC)c2c1n(C)c(SC)[n+]2C [CBK005720G] | 97.5% | 27.2% | 3.38% | 139% | 64.8% | 9.96% | 90.5% | 86.2% | 83.6% | 92.1% |
| O=C1C(NCCO)=C(Nc2cccc(Cl)c2)C(=O)c2ccccc21 [CBK264323] | 90.7% | 34.6% | 14.8% | 93% | 48.6% | 35.5% | 102% | 98.6% | 88.4% | 91.7% |
| COc1ccc([C@@H]2CN(C)C[C@H]2NC(=O)Nc2ccc(Cl)c(Cl)c2)cc1OC [CBK081111] | 105% | 25.8% | 3.39% | 118% | 21.4% | 8.62% | 92.3% | 92.2% | 88.4% | 99.3% |
| COc1ccc([C@@]23CC[C@@H](Nc4nc(-c5ccc(Br)cc5)cs4)C[C@@H]2N(C)CC3)cc1OC [CBK036543] | 76.2% | 68.6% | 45.2% | 138% | 104% | 94.2% | 91.3% | 91% | 109% | 87.7% |
| O=C(Nc1cc(Cl)nc(Cl)c1)N(Cc1ccc2ccccc2c1)CC1CCNCC1 [CBK049773] | 120% | 75.2% | 44.5% | 131% | 84.2% | 61.7% | 95.5% | 95.6% | 96.4% | 105% |
